“Also recorded” adds a separate entry of the source.
Assays:
[1] = test system: subcortical dopamine responsivity; assay: Behavioral testing (sniffing, locomotion, rearing) after saline or d-amphetamine challenge; format: in vivo, rat
Procedure: Animals at 5 or 10 weeks of age were habituated to the testing area for three hours each on 2 consecutive days. On the 3rd day, animals were habituated for an hour and then injected with saline (0.2 ml, l.p.) and their behaviors were monitored visually for an hour. They were then injected with d-amphetamine (5 mg/kg, l.p.) and their behaviors were monitored for an additional one-hour. An examiner who was blind to the animal groups performed testing. Several behavioral measures including locomotion, rearing (vertical activity), sniffing and grooming were monitored. Different cohorts of animals were used for testing at 5 and 10 weeks. For stress response, animals were submerged in water at room temperature for 5 min in a large container, then they were placed in a plexiglass box and their behaviors (similar to those described above) were visually monitored,
For novelty induced stress response, animals were subjected to novel environment or object and their motor behaviors were monitored. Behavioral data was analyzed using standard statistical methods (Rajakumar, Laurier, Niznik and Stoessi, Synapse 1997, 26: 199-208).

[2] = test system: dopaminergic fibers from the lower layers of the prefrontal cortex; assay: Intracerebral stereotaxic injections of 6-hydroxydopamine eliminating dopaminergic fibers in adult rats; format: in vivo, rat; conditions: unpublished work by the inventor
Excerpt: In the normal brain, dopaminergic fibers are distributed mainly in lower layers of the prefrontal cortex, Dopaminergic-fibers are abnormally distributed within the prefrontal cortex in schizophrenic patients with very low density in the lower layers (Akil, Pierri, Whitehead, Edgar, Mohila, Sampson and Lewis, American Journal of Psychiatry 1999, 156:1580-1589). […] Based on this work the inventor believed that abnormal laminar distribution of dopaminergic fibers in the prefrontal cortex may be responsible for the enhanced dopaminergic activity seen in schizophrenia. While abnormal distribution of dopaminergic fibers has been described in the prefrontal cortex in schizophrenic brains (Akil, Pierri, Whitehead, Edgar, Mohila, Sampson and Lewis, American Journal of Psychiatry 1999, 156:1580-1589), this has never implicated in the manifestation of dopaminergic hyperactivity.

[3] = test system: subplate cells in the developing prefrontal cortex; assay: Apoptosis of subplate cells after neonatal intracerebral injections of nerve growth factor (activated caspase-3 immunoreactivity); format: in vivo, rat; conditions: for apoptosis of subplate cells / neurons: intracerebral injections into developing prefrontal cortex of postnatal rats (250 ng/μl/site, postnatal days 3 and 4)
Procedure: Neonatal rat pups received daily injections of nerve growth factor into the developing prefrontal cortex at 2, 3 and 4 days of age (similarly other animals such as mice or monkeys can be injected at the appropriate neonatal or fetal period of prefrontal cortical development characterized by the expression of p75 receptor in subplate cells). Scalp of rat pups were sprayed with a topical anesthesia, and 1 μl of nerve growth factor ([…] in saline, human recombinant Nerve growth factor, Cedarlane Laboratories) was pressure injected with a 30 gauges needle into the developing prefrontal cortex on each side. Injections were made 1.5 mm in front of the bregma which is visible through the scalp, 0.5 mm lateral to the midline and 1.5 mm deep to the scalp surface. Injections were made slowly over 10 sec and the needle was left in situ for an additional 30 sec. Pups were kept separated from their mother for approximately 20 min during injecttion sessions. During this time they were kept warm. Control rat pups received exactly similar treatment but injected with saline. Experimental and control rats were marked with an ear punch on the right and left ears, respectively. After injection session pups were returned to their mother and allowed to grow under standard conditions.
Both neonatally nerve growth factor or saline injected rats were anesthetized with an intraperitoneal injection of sodium pentobarbital (Somnatol, 40 mg/kg) at 5 weeks or 10 weeks of age and perfused transcardially with a solution containing 4% freshly depolymerized paraformaldehyde in 0.1 M phosphate buffer at pH 7.4. Brains were removed, cryoprotected in 18% buffered-sucrose for 24 hours at 4° C., and sectioned in a freezing microtome 40 μm thick sections were processed for Nissl staining and immunohistochemistry as described previously (Rajakumar, Elisevich and Flumerfelt, Journal of Comparative Neurology 1994, 350:324-336).

prefrontal cortex = assay: Histological examination and immunohistochemistry of brains of neonatally injected rats; format: in vivo, rat
Procedure: […] Brains were removed, cryoprotected in 18% buffered-sucrose for 24 hours at 4° C., and sectioned in a freezing microtome 40 μm thick sections were processed for Nissl staining and immunohistochemistry as described previously (Rajakumar, Elisevich and Flumerfelt, Journal of Comparative Neurology 1994, 350:324-336).

[4] = biological target: T1, (Homo sapiens, UniProt P08138); conditions: cited from earlier work
T1 sequence (P08138 29-427): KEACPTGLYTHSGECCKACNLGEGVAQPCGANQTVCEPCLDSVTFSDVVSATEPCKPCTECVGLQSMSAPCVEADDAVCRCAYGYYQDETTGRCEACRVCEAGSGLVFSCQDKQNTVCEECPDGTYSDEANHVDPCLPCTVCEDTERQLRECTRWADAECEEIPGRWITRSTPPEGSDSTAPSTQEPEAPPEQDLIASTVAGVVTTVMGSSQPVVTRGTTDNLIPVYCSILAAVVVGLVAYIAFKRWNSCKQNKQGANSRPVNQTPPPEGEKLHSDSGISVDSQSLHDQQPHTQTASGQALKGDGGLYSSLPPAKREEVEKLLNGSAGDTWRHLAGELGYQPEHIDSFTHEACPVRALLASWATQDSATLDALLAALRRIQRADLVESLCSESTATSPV

[5] = at 5 weeks, d-amphetamine 5 mg/kg i.p. vs saline, control and experimental animals
[6] = at 5 weeks, saline or d-amphetamine challenge, n=30
[7] = at 10 weeks, d-amphetamine challenge, n=36
[8] = adult rat, neonatal injections, vs control

## C[C@H](N)Cc1ccccc1 [d-amphetamine, reference compound]
[1]; [5]
  effect of amphetamine injection on sniffing: increases sniffing in both groups of animals
  effect of amphetamine injection on total duration of locomotion: increases the total duration of locomotion in both groups of animals
[1]; at 10 weeks, d-amphetamine 5 mg/kg i.p. vs saline, control and experimental animals
  effect of amphetamine injection on sniffing: increases sniffing in both groups of animals

## NCCc1cc(O)c(O)cc1O [6-hydroxydopamine]
[2]
  subcortical dopaminergic activity to systemic injections of amphetamine: markedly enhanced subcortical dopaminergic activity

## nerve growth factor
[3]
  apoptosis of subplate cells / neurons: resulting in apoptosis of the subplate cells; also recorded: specifically induced apoptosis of subplate neurons
[3]; listed as NGF
  apoptosis of subplate cells / neurons: induces apoptosis
[3]; method of injection adopted, neonatal period
  effect on the hippocampus or other parts of the cerebral cortex: does not affect the hippocampus or any other parts of the cerebral cortex
[3]; postnatal rat brain, intracerebral injections
  mechanical, ischemic or inflammatory lesion: without causing any substantial mechanical, ischemic or inflammatory lesion
[3]; six day-old rat pup, daily intracerebral injections on postnatal days 2, 3 and 4
  immunoreactivity of activated caspase-3 in subplate cells: undergoing apoptosis
[1]; adult (after the 8th week), injections of d-amphetamine
  subcortical dopaminergic responsivity: enhanced subcortical dopamine responsivity; also recorded: increased subcortical dopaminergic responsivity
[1]; after the 8th week, neonatally injected rats
  response to changes in the environment: prolonged and enhanced response
[1]; [6]
  total duration of locomotor behavior, experimental vs control animals: no differences
  total duration of rearing behavior, experimental vs control animals: no differences
  total duration of sniffing behavior, experimental vs control animals: no differences
[1]; [7]
  total duration of locomotor behavior, experimental vs control animals: significantly increased locomotor behavior
  total duration of rearing behavior, experimental vs control animals: significantly increased rearing
[1]; at 10 weeks, saline or d-amphetamine challenge, n=36
  total duration of sniffing behavior, experimental vs control animals: no differences
[1]; until 8 weeks of age
  growth and behavioral patterns, experimental vs control rats: comparable growth and behavioral patterns
Prefrontal cortex; adult rat, control vs NGF-treated
  parvalbumin neuronal number in the prefrontal cortex: comparable
Prefrontal cortex; [8]
  GABA transporter-1 immunoreactive synapses in the prefrontal cortex: fewer; also recorded: markedly diminished
  density of tyrosine hydroxylase labeled (dopaminergic) fibers in lower layers of the prefrontal cortex: considerably decreased; also recorded: decreased density
  laminar distribution of parvalbumin immunoreactive terminals in the prefrontal cortex: altered laminar distribution of parvalbumin immunoreactive terminals
Prefrontal cortex; adult rat, neonatal injections, vs control, listed as NGF
  GABA transporter-1 immunoreactive synapses in the prefrontal cortex: markedly diminished
Prefrontal cortex; adult rat, neonatal injections, vs control, listed as Nerve growth factor
  density of tyrosine hydroxylase labeled (dopaminergic) fibers in lower layers of the prefrontal cortex: decreased dopaminergic fibers
Prefrontal cortex; histological examination of neonatally injected rats
  gross structure throughout the brain: apparently normal gross structure
Prefrontal cortex; injected animals as adults
  laminar distribution of GABAergic terminals in the prefrontal cortex: altered laminar distribution
Prefrontal cortex; neonatally injected rats in comparison to control animals
  lateral and third ventricular size: moderately enlarged; also recorded: relatively larger
Prefrontal cortex; rat sacrificed at 6 months of age, neonatal injections, vs control
  volume of lateral ventricles: increased considerably

## Pro-nerve growth factor
[4]
  increased affinity for p76 receptors: > 1000 fold

From US7902421B2, “Animal model for schizophrenia” (London Health Sciences Centre Research Inc., priority 2003, dated 2011)
